Where two headings read alike, the source gives them in different places.
How the values were obtained:
[1] = rats and mice; Akwa et al. 2001; cited from earlier work
[2] = tested on: B104 cells; assay: Necrotic effect of fibrillary form of human Aβ1-42 peptide on B104 cells; format: cell-based, Rat
Method: (§1) Rat B104 neuroblastoma is chosen as the cell culture model due to its neuronal phenotype when grown in serum free medium (Schubert et al. Nature 1974; 249: 224-27). B104 cells are routinely grown in flasks of 75 cm^2 with complete culture medium containing Dulbecco's Modified Eagle Medium (DMEM) supplemented with 2 mM L-glutamine, penicillin G (50 U/ml), streptomycin sulfate (50 μg/ml), 10% fetal calf serum, and 5% horse serum. They are sub-cultured every week and the culture medium is changed every three days. Cultures are maintained at 37° C. in a humidified incubator in 90% air and 10% CO2 atmosphere. For the experiments, the cells are plated at the required density, in serum complete medium for 24 H and then the medium is replaced with a serum free one containing or not the desired treatment.
(§2) Aβ1-42 is obtained from Bachem and prepared in fibril form known to mediate neurotoxicity (Lorenzo et al. Proc Natl Acad Sci USA 1994; 91:12243-47). Aβ1-42 fibrils are produced by dissolving the peptide in double distilled water (ddH2O) to 10 µg/μl, followed by incubation under agitation (300-400 rpm) for one week at 37° C.
Flow cytometry is utilized to look for the percentage of apoptosis or necrosis that reflects the neurotoxic effect of Aβ1-42 as well as the neuroprotective effect of neurosteroids by staining cells with annexin V that has affinity to phosphatidyl serine (PS) (Van Genderen et al. 2006). In normal viable cells, PS is located on the cytoplasmic side of the cell membrane. However, in apoptotic cells, PS is translocated from the inner to the outer leaflets of the plasma membrane where annexin V could bind to PS. Moreover, annexin V can pass through the compromised membrane of necrotic cells and bind to PS in the anterior of the cell (Van Genderen et al. Nat Protoc 2006; 1:363-67).
Cells are seeded in 6 well plates at the required density and grown for 24H. They are then treated according to two procedures: either with specific steroids and then Aβ1-42 or with Aβ1-42 followed by steroids. A kinetic study is performed at 6, 12 or 24 H depending on the concentration of the peptide.
For flow cytometry analysis, cells are washed with PBS and harvested by trypsinization. After centrifugation and resuspension in annexin binding buffer and incubation for 15 min with 5-25 μl of annexin V conjugate, cells are washed with annexin binding buffer and examined by flow cytometry. Data is examined by using appropriate software, and scattergrams are analyzed.

[3] = tested on: B104 cells; assay: Neurotrophic activity: neuronal outgrowth in B104 cells cultured at low density; format: cell-based, Rat; conditions: 5 μM PREGS during 7 days, compared to control cells
Method: as §1
For this purpose, […] acid (95:5), washed and incubated for 30 min in PBS containing 2% bovine serum albumin (BSA) to block non specific binding. Immunostaining of B104 cells is performed for 2 H at room temperature (RT) with appropriate dilutions of primary antibodies. Then, cells are rinsed and incubated with sheep anti-mouse IgG antibodies (Sigma) in PBS/BSA, for 2 H at RT. After being washed, the immunostained cells are examined under microscope (a Leica or Zeiss Axiovert 135M microequipped with an epifluorescence system or optical microscope Nikon Labophot 2).

[4] = tested on: B104 cells; assay: Neuroprotection by PREGS against fibrillary human Aβ1-42 peptide toxicity on B104 cells; format: cell-based, Rat; parameters: protection against Aβ1-42 peptide-induced toxicity: dose or concentration left out as unconfirmed
Method: as §1
as §2, with “C. […]” for “C.”
For flow cytometry analysis, cells are washed with PBS and harvested by trypsinization. […] Data is examined by using appropriate software, and scattergrams are analyzed.

In the case of `CC(=O)[C@@H]1CC[C@@H]2[C@H]3CC=C4C[C@H](OS(=O)(=O)O)CC[C@@]4(C)[C@@H]3CC[C@]21C` [ent-PREGS], the “potency in stimulating memory relative to natural PREGS” value [1] is listed as “more potent”.
For “Aβ1-42: fibrillary form of human β-amyloid peptide Aβ1-42, obtained from Bachem”, the “necrosis, dose dependence” value [2] was “significant dose-dependent necrosis”, the necrotic effect ([2]; B104 cells, 10 μM human Aβ1-42 peptide, 6 h, compared to control cells) was “considerable necrotic effect” and the “time after treatment at which necrotic effect was demonstrated” value ([2]; B104 cells, fAβ1-42) was at most 6 H. The “necrosis, dose dependence” value ([2]; B104 cells, increasing from 5 μM to 20 μM of fAβ1-42 peptide) was “significant dose-dependent necrosis”.
With pregnenolone sulfate [PREGS] the neuronal cell outgrowth [3] was “Striking neuronal cell outgrowth”, the “protection against fAβ1-42 peptide-induced toxicity” value ([4]; PREGS at 20 μM, 20 μM fAβ1-42 peptide, observed at 24H, maintained until 96H) was “able to protect” and the “protection against Aβ1-42 peptide-induced toxicity” value ([4]; observed at 24 h, maintained until 96 h) was “able to protect”.

— patent US20120122830A1 (King Faisal Specialist Hospital & Research Centre, priority 2008, published 2012)
